Reference: PMC9025810, “Interaction of Antifungal Drugs with CYP3A- and OATP1B-Mediated Venetoclax Elimination” (Pharmaceutics, 2022)
Like-named read-outs stand apart in the source and are kept apart here. *1 amine or outer side, *2 acyl side, *3 side chain or, on linkers, in order; H or OH if unused. Where a SMILES comes first, the peptide text is derived from it. Bridges are numbered along the chain shown (N, C = ends). [ ]: non-standard residue; d: D form. The star is where a group is joined. hTyr(3S-OH,4S-OH,3'-OSO3H) = N[C@H](C(=O)O)[C@H](O)[C@@H](O)c1ccc(O)c(OS(=O)(=O)O)c1; pTerphenylCO(4''-OnC5H11) = CCCCCOc1ccc(-c2ccc(-c3ccc(C(=O)*)cc3)cc2)cc1; Orn(4R-OH,5R-OH) = O=C([C@H](C[C@@H](O)[C@@H](O)N[*:3])N[*:1])[*:2]; hTyr(3S-OH,4S-OH) = N[C@H](C(=O)O)[C@H](O)[C@@H](O)c1ccc(O)cc1; Pro(3S-OH,4S-Me) = C[C@H]1CN[C@H](C(=O)O)[C@H]1O; X1 = CCCCCOc1ccc(-c2cc(-c3ccc(C(=O)*)cc3)no2)cc1; Gln(3R-OH) = NC(=O)C[C@@H](O)[C@H](N)C(=O)O; Hyp = O=C(O)[C@@H]1C[C@@H](O)CN1

What was measured:
OATP1B1 [1] = biological target: T1, OATP1B1 (Homo sapiens, UniProt Q9Y6L6); assay: Inhibition of OATP1B1-mediated [3H]EβG uptake in HEK293 cells; details: for IC50: 0.2 µM EβG, 15 min pre-incubation + 15 min co-incubation; for OATP1B1 inhibitory potency compared with parent drug itraconazole: EβG uptake
T1 sequence (Q9Y6L6 1-691): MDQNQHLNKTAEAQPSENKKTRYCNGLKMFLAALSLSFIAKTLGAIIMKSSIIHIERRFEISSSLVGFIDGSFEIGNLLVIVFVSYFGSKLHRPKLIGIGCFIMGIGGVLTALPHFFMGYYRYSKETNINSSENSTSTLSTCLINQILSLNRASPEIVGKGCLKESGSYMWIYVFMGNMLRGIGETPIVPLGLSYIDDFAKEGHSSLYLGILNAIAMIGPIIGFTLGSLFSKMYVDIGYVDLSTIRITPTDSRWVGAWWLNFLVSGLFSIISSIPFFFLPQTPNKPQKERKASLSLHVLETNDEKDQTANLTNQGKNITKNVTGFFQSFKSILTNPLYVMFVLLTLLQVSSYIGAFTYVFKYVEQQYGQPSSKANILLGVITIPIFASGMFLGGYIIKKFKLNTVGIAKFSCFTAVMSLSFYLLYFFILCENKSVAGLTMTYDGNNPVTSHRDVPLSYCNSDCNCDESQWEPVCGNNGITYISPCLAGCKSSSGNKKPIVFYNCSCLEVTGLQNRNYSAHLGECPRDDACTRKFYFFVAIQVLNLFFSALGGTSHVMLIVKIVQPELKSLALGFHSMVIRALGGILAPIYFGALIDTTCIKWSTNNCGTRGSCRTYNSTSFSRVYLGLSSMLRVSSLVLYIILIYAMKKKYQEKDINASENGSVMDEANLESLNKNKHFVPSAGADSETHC
Experimental: (§1) In brief, radioactive uptake assays were performed utilizing HEK293 cell lines stably expressing OATP1B1 or OATP1B2, or cells expressing the respective vector control (VC) [17, 18]. […] Cells were cultured in Dulbecco’s Modified Eagle Medium (DMEM; Invitrogen) supplemented with 10% FBS; the media for cells expressing OATP1B1 or VC was supplemented with hygromycin B (25 mg/mL; Invitrogen), and blasticidin (37.5 mg/mL; Biovision).
(§2) For inhibition experiments, cells were seeded in 12- or 24-well plates in phenol red-free media and were incubated at 37 °C for 24 h; cells overexpressing OATP1B1 or VC were incubated with doxycycline (1 µg/mL) for 24 h. Cells were washed with warm PBS and pre-incubated with the indicated concentrations of each potential inhibitor (or an equal volume of vehicle) in phenol red-free DMEM (without FBS and supplements) at 37 °C for 15 min. […] The experiment was terminated by washing three times with ice-cold PBS. Cells were lysed with 1 N NaOH overnight at 4 °C, and the solution was neutralized with 2 M HCl. […] The OATP1B-mediated uptake was calculated by dividing the disintegrations per minute (dpm) from each replicate by the amount of protein (mg) and subtracting the dpm/mg protein in the VC cell line. The OATP1B1-mediated uptake at each concentration of each antifungal drug was then compared with the OATP1B1-mediated uptake when only an equal volume of vehicle (water or DMSO) was added without the antifungal drug.

OATP1B2 = biological target: T2, OATP1B2 (Mus musculus, UniProt Q9JJL3); assay: Inhibition of OATP1B2-mediated [3H]EβG uptake in HEK293 cells
T2 sequence (Q9JJL3 1-689): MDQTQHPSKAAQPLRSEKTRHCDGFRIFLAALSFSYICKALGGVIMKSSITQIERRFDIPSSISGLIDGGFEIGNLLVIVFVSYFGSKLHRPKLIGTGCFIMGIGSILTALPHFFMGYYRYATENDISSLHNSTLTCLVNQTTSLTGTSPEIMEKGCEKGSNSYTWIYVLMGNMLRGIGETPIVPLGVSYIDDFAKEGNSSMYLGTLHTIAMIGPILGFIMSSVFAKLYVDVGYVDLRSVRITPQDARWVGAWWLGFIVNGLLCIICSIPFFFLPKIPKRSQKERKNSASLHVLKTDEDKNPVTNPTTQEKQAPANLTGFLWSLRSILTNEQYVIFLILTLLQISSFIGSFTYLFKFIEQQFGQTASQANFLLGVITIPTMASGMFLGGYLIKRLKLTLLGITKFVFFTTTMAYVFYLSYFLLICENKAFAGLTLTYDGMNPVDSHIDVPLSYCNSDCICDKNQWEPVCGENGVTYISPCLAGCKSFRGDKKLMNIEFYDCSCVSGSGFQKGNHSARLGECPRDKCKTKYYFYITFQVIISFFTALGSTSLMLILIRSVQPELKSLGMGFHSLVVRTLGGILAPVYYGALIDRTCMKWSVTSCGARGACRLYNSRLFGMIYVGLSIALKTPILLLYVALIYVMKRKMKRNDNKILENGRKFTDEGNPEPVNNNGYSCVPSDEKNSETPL
Experimental: as §1, §2

OATP1B1 [2] = biological target: T1, OATP1B1; assay: In vitro to in vivo extrapolation (FDA basic models: Cmax,ss/IC50 and R value); details: FDA 2020 guidance Equation (2), >1.1 indicates potential to inhibit in vivo
Text: In brief, we utilized the equation Cmax,ss/IC50. To use this equation, we identified the mean total peak concentration at the steady-state of each potential inhibitor (Cmax,ss) from the published literature on the clinical pharmacokinetics of each agent (Supplementary Table S2). We then divided Cmax,ss by the IC50 of the respective agents. (1) CMax,ss/IC50
As indicated by the FDA guidelines, values of >0.1 indicate the potential for a clinically relevant interaction.
To utilize this equation, we used the previously determined Cmax,ss (Supplementary Table S2). Where necessary, the molar weight was used to convert the dose or Cmax,ss to µM. We determined the unbound fraction in plasma (fup) for each drug from publicly available literature. […] As recommended by the FDA guidelines, the fraction absorbed (Fa) and intestinal availability (Fg) were set to 1, fup was set to 1% when reported to be less than 1%, and the absorption constant (ka) was set to 0.1 min^−1 (as a worst-case estimate).

OATP1B1 [3] = biological target: T1, OATP1B1; assay: Radioactive uptake and membrane/intracellular fractionation in cells overexpressing OATP1B1 or vector; format: cell-based; set-up: expressed in transfected cells; details: 0.2 µM EβG or 1 µM venetoclax, 15 min
Experimental: For experiments seeking to directly determine if venetoclax is an OATP1B1 substrate, cells overexpressing OATP1B1 or VC were seeded in six-well plates in phenol red-free DMEM containing 10% FBS and doxycycline (1 µg/mL) for 24 h. […] Cells were then immediately lysed with 1 mL of 1 N NaOH for 4 h on an orbital shaker at room temperature to measure total radioactivity. Alternatively, cells were trypsinized with 200 µL of TrypLE (Thermo Fisher Scientific, Waltham, MA, USA) for 3–5 min, rinsed with 800 µL of ice-cold washing buffer, and ProteoExtract Native Membrane Protein Extraction Kits (EMD Millipore, Burlington, MA, USA) were used to separate membrane and intracellular fractions. Dissociated cells were then transferred to 1.5-mL Eppendorf tubes. For measurement of total radioactivity, cells were neutralized with 500 µL of 2 M HCl after 4 h. For measurement of total radioactivity in the membrane or intracellular fraction, cells were isolated following the manufacturer’s protocol, as we have reported previously; this procedure is based on a differential extraction procedure under non-denaturing conditions.

OATP1B1 [4] = system: OATP1B1; set-up: method as in PMID 27273149; details: previous data, weak inhibition; cited from earlier work
[5] = cited from earlier work
OATP1B1 [6] = biological target: T1, OATP1B1; assay: Competitive counterflow assay with 8-acetoxy-trisulfopyrene; format: cell-based; set-up: expressed in transfected cells; details: 5 µM ACE; venetoclax 200 µM, cyclosporin A 10 µM, paraformaldehyde 0.5%; 20 min
Experimental: Competitive counterflow assays were performed with 8-acetoxy-trisulfopyrene, an activatable fluorogenic probe for OATP1B1, as described previously. In brief, cells expressing a vector or OATP1B1 were seeded in 96-well opaque plates in phenol-red free DMEM media with 10% FBS and induced with doxycycline for 24 h. On the day of the experiment, the media was removed, and the cells were washed three times with warm PBS. The cells were then incubated for 20 min at 37 °C with 100 µL of 5 µM 8-acetoxypyrene-1,3,6-trisulfonate uptake buffer (ACE; 125 mM NaCl, 4.8 mM KCl, 1.2 mM CaCl2, 1.2 mM KH2PO4, […], 25 mM 2-N-morpholino), ethanesulfonic acid, and 5.6 mM glucose, with the pH adjusted to 5.5). […] The fluorescence was measured at excitation and emission wavelengths of 460 nm and 510 nm, respectively, after 20 min of incubation to control for the number of cells.
The plates were incubated for 20 min at 37 °C. In the final step, the supernatant was removed, and the cells were washed three times with 200 µL ice-cold PBS to stop the reaction. PBS was then removed and 200 µL of 0.1 N NaOH was added to each well to normalize the pH. The fluorescence was measured as described above after another 20 min incubation at room temperature. The levels of cell dye were reported as a percent of the measurement from cells containing ACE alone.

[7] = OATP1B2 IC50, HEK293 cells, 0.2 µM EβG, 15 min pre-incubation + 15 min co-incubation

Row | Molecule | IC50 (OATP1B1 [1]; OATP1B1 IC50, HEK293 cells) [µM] | IC50 (OATP1B2; [7]) [µM] | R value (OATP1B1 [2]) | other results
1 | CCCCCOc1ccc(-c2ccc(-c3ccc(C(=O)N[C@H]4C[C@@H](O)[C@@H](O)NC(=O)[C@@H]5[C@@H](O)[C@@H](C)CN5C(=O)[C@H]([C@@H](C)O)NC(=O)[C@H]([C@H](O)[C@@H](O)c5ccc(O)cc5)NC(=O)[C@@H]5C[C@@H](O)CN5C(=O)[C@H]([C@@H](C)O)NC4=O)cc3)cc2)cc1 [Anidulafungin] ({pTerphenylCO(4''-OnC5H11)}-[Orn(4R-OH,5R-OH)]T[Hyp][hTyr(3S-OH,4S-OH)]T[Pro(3S-OH,4S-Me)]; lactam 1-C) | 42 | – | – | –
2 | CC[C@H](C)C[C@H](C)CCCCCCCCC(=O)N[C@H]1C[C@@H](O)[C@@H](NCCN)NC(=O)[C@@H]2[C@@H](O)CCN2C(=O)[C@H]([C@H](O)CCN)NC(=O)[C@H]([C@H](O)[C@@H](O)c2ccc(O)cc2)NC(=O)[C@@H]2C[C@@H](O)CN2C(=O)[C@H]([C@@H](C)O)NC1=O [Caspofungin] | 9.2 | > 100 | – | –
3 | CC(C)c1nc(CN(C)C(=O)N[C@@H](CCN2CCOCC2)C(=O)N[C@H](CC[C@H](Cc2ccccc2)NC(=O)OCc2cncs2)Cc2ccccc2)cs1 [Cobicistat] | 0.31 | 0.7 | > 1.1 | –
4 | C[C@]12CC[C@@H]3c4ccc(O)cc4CC[C@H]3[C@@H]1CC[C@@H]2O[C@@H]1O[C@H](C(=O)O)[C@@H](O)[C@H](O)[C@H]1O [EβG, Estradiol-17β-D-glucuronide] | – | – | – | Uptake in the intracellular fraction with overexpression of OATP1B1 versus vector (OATP1B1 [3]): significant increases
5 | OC(Cn1cncn1)(Cn1cncn1)c1ccc(F)cc1F [Fluconazole] | 4100 | > 5000 | – | –
6 | CC(O)C(C)n1ncn(-c2ccc(N3CCN(c4ccc(OCC5COC(Cn6cncn6)(c6ccc(Cl)cc6Cl)O5)cc4)CC3)cc2)c1=O (stereo not shown) [Hydroxy-ITZ, hydroxy-itraconazole] | 3.5 | > 2 | – | OATP1B1 inhibitory potency compared with parent drug itraconazole (OATP1B1 [1]; HEK293 cells): more potent inhibitors of OATP1B1 than the parent drug
7 | C[C@@H](c1nc(-c2ccc(C#N)cc2)cs1)[C@](O)(Cn1cncn1)c1cc(F)ccc1F [Isavuconazole] | 2.5 | 2.5 | > 1.1 | IC50 (OATP1B1 [4]): > 10 µM
8 | CCC(C)n1ncn(-c2ccc(N3CCN(c4ccc(OCC5COC(Cn6cncn6)(c6ccc(Cl)cc6Cl)O5)cc4)CC3)cc2)c1=O (stereo not shown) [Itraconazole] | 37 | > 50 | – | –
9 | CC(=O)C(C)n1ncn(-c2ccc(N3CCN(c4ccc(OC[C@H]5CO[C@](Cn6cncn6)(c6ccc(Cl)cc6Cl)O5)cc4)CC3)cc2)c1=O (stereo partly shown) [Keto-ITZ, keto-itraconazole] | – | – | – | OATP1B1 inhibitory potency compared with parent drug itraconazole (OATP1B1 [1]; HEK293 cells): more potent inhibitors of OATP1B1 than the parent drug; IC50 (OATP1B1 [1]; read-out: OATP1B1 IC50, HEK293 cells): 8.3 µM
10 | CC(=O)N1CCN(c2ccc(OCC3COC(Cn4ccnc4)(c4ccc(Cl)cc4Cl)O3)cc2)CC1 (stereo not shown) [Ketoconazole] | 1.5 | 2.2 | – | Fraction Unbound (fup) [5]: 3.2%
11 | CCCCCOc1ccc(-c2cc(-c3ccc(C(=O)N[C@H]4C[C@@H](O)[C@@H](O)NC(=O)[C@@H]5[C@@H](O)[C@@H](C)CN5C(=O)[C@H]([C@H](O)CC(N)=O)NC(=O)[C@H]([C@H](O)[C@@H](O)c5ccc(O)c(OS(=O)(=O)O)c5)NC(=O)[C@@H]5C[C@@H](O)CN5C(=O)[C@H]([C@@H](C)O)NC4=O)cc3)no2)cc1 [Micafungin] (X1-[Orn(4R-OH,5R-OH)]T[Hyp][hTyr(3S-OH,4S-OH,3'-OSO3H)][Gln(3R-OH)][Pro(3S-OH,4S-Me)]; lactam 1-C) | 2.1 | 4.9 | > 1.1 | –
12 | CC[C@@H]([C@H](C)O)n1ncn(-c2ccc(N3CCN(c4ccc(OC[C@@H]5CO[C@@](Cn6cncn6)(c6ccc(F)cc6F)C5)cc4)CC3)cc2)c1=O [Posaconazole] | 1.9 | > 80 | > 1.1 | IC50 (OATP1B2; IC50 (Figure S7, Relative OATP1B2 Function), HEK293 cells expressing OATP1B2, EβG uptake, value printed in figure panel): > 100 µM; IC50 at 15 min (OATP1B2; mouse, HEK293 cells stably expressing OATP1B2, probe [3H]EβG, 0.2 µM, OATP1B2 IC50, HEK293 cells, 0.2 µM EβG, 15 min pre-incubation + 15 min co-incubation): > 20 µM
13 | CO[C@H]1/C=C/O[C@@]2(C)Oc3c(C)c(O)c4c(O)c(c(/C=N/N5CCN(C)CC5)c(O)c4c3C2=O)NC(=O)/C(C)=C\C=C\[C@H](C)[C@H](O)[C@@H](C)[C@@H](O)[C@@H](C)[C@H](OC(C)=O)[C@@H]1C [Rifampin] | < 3 | 2.1 | > 1.1 | –
14 | C[C@@H](c1ncncc1F)[C@](O)(Cn1cncn1)c1ccc(F)cc1F [Voriconazole] | 80 | > 200 | – | –
15 | paraformaldehyde | – | – | – | Effect on fluorescence (cell dye level) in competitive counterflow (OATP1B1 [6]): did not decrease fluorescence
